Source: PubChem BioAssay AID2060889 (Molecular Pharmacology Branch, DTP, NCI, 2025)

Test system: LG0567-F671-PDC complex spheroids viability
Assay: Anticancer human tumor LG0567-F671-PDC patient-derived lung adenocarcinoma cell line growth inhibition [RAS]
Settings: for IC50: curve of first compound; for viability, T/C: stronger effect = lower value
Summary of the method: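 Agents were tested in combination matrices in half-log decrements from a top concentration at or near clinical Cmax (10 microM if undetermined). Targets were multi-cell spheroids of tumour lines plus HUVEC and MSC stromal cells.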
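Further: spheroids exposed to compound for seven days before readout.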
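Wherever IC50 is given: luminescence signal used as a proxy for viable cells.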

For `NC1c2ccccc2OC12CCN(c1cnc3c(N4CCCc5ncccc54)n[nH]c3n1)CC2` (centres undefined) + CCn1c(-c2cccnc2C(C)OC)c2c3cc(ccc31)N1CCOC(CC(NC(=O)C(C(C)C)N(C)C(=O)C3(F)CCN(C(=O)C#CC(C)(C)N(C)C)CC3)C(=O)N3CCCC(N3)C(=O)OCC(C)(C)C2)C1, the IC50 (second compound 0.000949 µM) was < 31.6 nM, the IC50 (second compound 0.003 µM) was < 31.6 nM and the IC50 (second compound 0.00949 µM) was < 31.6 nM. For the same compound, the IC50 (second compound 0.03 µM) was < 31.6 nM, the IC50 (second compound 0.0949 µM) was < 31.6 nM and the IC50 (second compound 0.3 µM) was < 31.6 nM. For the same compound, the viability, T/C (second compound 0.000949 µM, first compound 0.0316 µM) was 4.75%, the viability, T/C (second compound 0.000949 µM, first compound 0.1 µM) was 4.54% and the viability, T/C (second compound 0.000949 µM, first compound 0.316 µM) was 2.82%. The viability, T/C (second compound 0.000949 µM, first compound 1 µM) was 2.6%, the viability, T/C (second compound 0.000949 µM, first compound 3.16 µM) was 3.24% and the viability, T/C (second compound 0.000949 µM, first compound 10 µM) was 2.18%. It also gave a viability, T/C (second compound 0.003 µM, first compound 0.0316 µM) of 5.7%, a viability, T/C (second compound 0.003 µM, first compound 0.1 µM) of 4.2% and a viability, T/C (second compound 0.003 µM, first compound 0.316 µM) of 3.08%. It also gave a viability, T/C (second compound 0.003 µM, first compound 1 µM) of 2.79%, a viability, T/C (second compound 0.003 µM, first compound 3.16 µM) of 2.89% and a viability, T/C (second compound 0.003 µM, first compound 10 µM) of 3%. For the same compound, the viability, T/C (second compound 0.00949 µM, first compound 0.0316 µM) was 6.21%, the viability, T/C (second compound 0.00949 µM, first compound 0.1 µM) was 3.69% and the viability, T/C (second compound 0.00949 µM, first compound 0.316 µM) was 3.15%. For the same compound, the viability, T/C (second compound 0.00949 µM, first compound 1 µM) was 2.2%, the viability, T/C (second compound 0.00949 µM, first compound 3.16 µM) was 1.99% and the viability, T/C (second compound 0.00949 µM, first compound 10 µM) was 1.74%. It also gave a viability, T/C (second compound 0.03 µM, first compound 0.0316 µM) of 4.82%, a viability, T/C (second compound 0.03 µM, first compound 0.1 µM) of 4.27% and a viability, T/C (second compound 0.03 µM, first compound 0.316 µM) of 2.5%. For the same compound, the viability, T/C (second compound 0.03 µM, first compound 1 µM) was 1.95%, the viability, T/C (second compound 0.03 µM, first compound 3.16 µM) was 1.88% and the viability, T/C (second compound 0.03 µM, first compound 10 µM) was 2.47%. The viability, T/C (second compound 0.0949 µM, first compound 0.0316 µM) was 4.25%, the viability, T/C (second compound 0.0949 µM, first compound 0.1 µM) was 3.02% and the viability, T/C (second compound 0.0949 µM, first compound 0.316 µM) was 2.73%. It also gave a viability, T/C (second compound 0.0949 µM, first compound 1 µM) of 1.84%, a viability, T/C (second compound 0.0949 µM, first compound 3.16 µM) of 1.66% and a viability, T/C (second compound 0.0949 µM, first compound 10 µM) of 1.44%. It also gave a viability, T/C (second compound 0.3 µM, first compound 0.0316 µM) of 3.31%, a viability, T/C (second compound 0.3 µM, first compound 0.1 µM) of 2.55% and a viability, T/C (second compound 0.3 µM, first compound 0.316 µM) of 1.71%. The viability, T/C (second compound 0.3 µM, first compound 1 µM) was 1.65%, the viability, T/C (second compound 0.3 µM, first compound 3.16 µM) was 1.27% and the viability, T/C (second compound 0.3 µM, first compound 10 µM) was 2.62%.

For `C[C@@H](NC(=O)c1ncnc(N)c1Cl)c1ncc(C(=O)Nc2cc(C(F)(F)F)c(Cl)cn2)s1` + C#Cc1c(F)ccc2cc(O)cc(-c3ncc4c(N5CC6CCC(C5)N6)nc(OCC56CCCN5CC(F)C6)nc4c3F)c12, the IC50 (second compound 0.0316 µM) was > 10000 nM, the IC50 (second compound 0.1 µM) was > 10000 nM and the IC50 (second compound 0.316 µM) was 7540 nM. For the same compound, the IC50 (second compound 1 µM) was < 31.6 nM, the IC50 (second compound 3.16 µM) was < 31.6 nM and the IC50 (second compound 10 µM) was < 31.6 nM. The viability, T/C (second compound 0.0316 µM, first compound 0.0316 µM) was 99.1%, the viability, T/C (second compound 0.0316 µM, first compound 0.1 µM) was 100% and the viability, T/C (second compound 0.0316 µM, first compound 0.316 µM) was 125%. For the same compound, the viability, T/C (second compound 0.0316 µM, first compound 1 µM) was 103%, the viability, T/C (second compound 0.0316 µM, first compound 3.16 µM) was 94.9% and the viability, T/C (second compound 0.0316 µM, first compound 10 µM) was 56.1%. It also gave a viability, T/C (second compound 0.1 µM, first compound 0.0316 µM) of 81.2%, a viability, T/C (second compound 0.1 µM, first compound 0.1 µM) of 105% and a viability, T/C (second compound 0.1 µM, first compound 0.316 µM) of 88.8%. It also gave a viability, T/C (second compound 0.1 µM, first compound 1 µM) of 92.8%, a viability, T/C (second compound 0.1 µM, first compound 3.16 µM) of 82% and a viability, T/C (second compound 0.1 µM, first compound 10 µM) of 57%. For the same compound, the viability, T/C (second compound 0.316 µM, first compound 0.0316 µM) was 73.5%, the viability, T/C (second compound 0.316 µM, first compound 0.1 µM) was 80.9% and the viability, T/C (second compound 0.316 µM, first compound 0.316 µM) was 74.2%. It also gave a viability, T/C (second compound 0.316 µM, first compound 1 µM) of 67.7%, a viability, T/C (second compound 0.316 µM, first compound 3.16 µM) of 67% and a viability, T/C (second compound 0.316 µM, first compound 10 µM) of 44.7%. The viability, T/C (second compound 1 µM, first compound 0.0316 µM) was 40.5%, the viability, T/C (second compound 1 µM, first compound 0.1 µM) was 43.7% and the viability, T/C (second compound 1 µM, first compound 0.316 µM) was 52.5%. The viability, T/C (second compound 1 µM, first compound 1 µM) was 42.5%, the viability, T/C (second compound 1 µM, first compound 3.16 µM) was 51.8% and the viability, T/C (second compound 1 µM, first compound 10 µM) was 34%. The viability, T/C (second compound 3.16 µM, first compound 0.0316 µM) was 26.1%, the viability, T/C (second compound 3.16 µM, first compound 0.1 µM) was 28.6% and the viability, T/C (second compound 3.16 µM, first compound 0.316 µM) was 29.2%. For the same compound, the viability, T/C (second compound 3.16 µM, first compound 1 µM) was 25.6%, the viability, T/C (second compound 3.16 µM, first compound 3.16 µM) was 26.6% and the viability, T/C (second compound 3.16 µM, first compound 10 µM) was 23.2%. It also gave a viability, T/C (second compound 10 µM, first compound 0.0316 µM) of 14.9%, a viability, T/C (second compound 10 µM, first compound 0.1 µM) of 17.1% and a viability, T/C (second compound 10 µM, first compound 0.316 µM) of 16.5%. The viability, T/C (second compound 10 µM, first compound 1 µM) was 19.4%, the viability, T/C (second compound 10 µM, first compound 3.16 µM) was 21.2% and the viability, T/C (second compound 10 µM, first compound 10 µM) was 17.9%.
